Test results published in patent US20210094922A1, “Dyes for Analysis of Soluble Protein Aggregates or Misfolded Protein Oligomers” (The Penn State Research Foundation, priority 2018, published 2021).

Legend:
SOD1(V31A)-Halo [1] = molecular target: SOD1(V31A)-Halo (UniProt P00441+P0A3G2, A155T/A167V/A172T/A224E/C128F/C176G/D78G/E160K/E257K/H272N/K175M/K195N/L47V/L88M/N227D/S58T/T264A/V32A/Y273L/Y87F); experiment: In vitro heat-induced aggregation of purified SOD1(V31A)-Halo-4 conjugate; format: biochemical; set-up: made in house; host or cells: E. coli BL21 DE3* (pET29b; pBAD σ32-I54N co-expressed)
Description: (§1) (a) Purified SOD1(V31A)-Halo and Halo-Tag proteins (42 μM), both of which were conjugated with 4 (21 μM), were incubated at varying temperatures (25, 37, 38.9, 41.8, 45.6, 50.7, 54.5, 57.2, and 59° C.). As control samples, 4 (21 μM) was prepared in buffer, 1,4-dioxane, glycerol, BSA (2 mg/mL). Fluorescence intensity was recorded at Ex=530 nm/Em=600 nm. All readings were normalized to intensity of the Halo-Tag-4 conjugate at 25° C. Fluorescence of protein samples was also visualized via UV transilluminator. In addition, protein samples were centrifuged at 21,000 g for 30 min at 4° C. to analyze their insoluble fraction using fluorescence of 4 as signal on SDS-PAGE gel. […] This fluorescence was not originated from aggregation of Halo-Tag domain, as evidenced by the low fluorescence of the Halo-4 conjugate and lack of significant insoluble fraction at these temperatures. Error bars: standard error (n=3). (b) Purified SOD1(V31A)-Halo and Halo-Tag proteins ([…]) were conjugated with 4 (21 μM) and incubated at 54.5° C. Fluorescence was recorded using Agilent Carey Eclipse fluorescence spectrophotometer with temperature control. Buffer condition: 50 mM Tris-HCl, pH 7.5, 100 mM NaCl, 83 mM EDTA. Parameters for fluorescence measurement: 4 (Ea=530 nm/Em=600 nm).
(§2) (a) Purified SOD1(V31A)-Halo (42 μM) was conjugated with 4 (21 μM) and incubated at 54.5° C. Fluorescence was recorded using Agilent Carey Eclipse fluorescence spectrophotometer with temperature control. Turbidity was recorded using Agilent 300 UV-Vis spectrophotometer. Buffer condition: 50 mM Tris-HCl, pH 7.5, 100 mM NaCl, 83 mM EDTA. (b) Kinetics of fluorescence increases from the SOD1(V31A)-Halo-4 conjugate (red curve) was compared to the kinetics of protein misfolding (black curve) as measured by Tryptophan fluorescence change. Fluorescence was recorded using Agilent Carey Eclipse fluorescence spectrophotometer with temperature control. Experiments were carried out at 54.5° C. Parameters for fluorescence measurement: 4 (Ex=530 nm/Em=600 nm) and Trp (Ex=290 nm/Em=330 and 345 nm). Error bars: standard error (n=3).

SOD1(V31A)-Halo [2] = molecular target: SOD1(V31A)-Halo (Rhodococcus rhodochrous, UniProt P0A3G2, A155T/A167V/A172T/A224E/C128F/C176G/D78G/E160K/E257K/H272N/K175M/K195N/L47V/L88M/N227D/P291S/S58T/T264A/Y273L/Y87F); experiment: as above; format: biochemical; set-up: made in house; host or cells: E. coli BL21 DE3* (pET29b; pBAD σ32-I54N co-expressed)
Description: as §1, §2

[3] = molecular target: T1, (UniProt P0A3G2+P42858, A155T/A167V/A172T/A224E/C128F/C176G/D78G/DEL18-38/E160K/E257K/H272N/K175M/K195N/L47V/L88M/N227D/S58T/T264A/Y273L/Y87F); experiment: AggTag imaging of Htt-Halo aggregation in HEK293T cells; format: cell-based, human; settings: non-aggregating control
T1 construct: using the Huntingtin exon 1 protein (Htt) with expansion of a polyglutamine tract within its N-terminal domain; expressed in transfected cells; host or cells: HEK293T
Description: (a) The dual-probe live cell imaging experiment. Halo-tag fusion proteins were labeled in the presence of both the non-fluorogenic coumarin ligand (1 μM) and 4 (1 µM). The newly synthesized Htt-Halo proteins were equally labeled with either the coumarin ligand or 4. The coumarin ligand is fluorescent both before and after aggregation of Htt-Halo. By contrast, signal of 4 exclusively arises from Htt-Halo aggregates. (b) Dual probes labeling confirms expression of proteins. The Htt Q0-Halo and Htt Q97-Halo proteins were transiently transfected and expressed in HEK293T cells for 24 h, in the presence of 1 μM coumarin Halo-Tag ligand and 1 μM of 4. In cells expressing Htt Q97-Halo proteins, punctate structures in the coumarin channel coincided with the turn-on fluorescence of 4. […] (c) The Htt Q97 protein, without a Halo-Tag, was transiently transfected and expressed in HEK293T cells for 24 h, in the presence of 1 μM of 4. No turn-on fluorescence of 4 was found. Red: fluorescence from the SOD1(V31A)-Halo-4 conjugate. Blue: coumarin Halo-Tag ligand in (a) or nucleus stained by Hoechst 33342 in (b). Scale bar: 10 μm. (d) Fluorescent intensity of cell lysates from samples as represented in FIG. 4d. Error bars: standard error (n=3).
Confocal microscope imaging. The HEK293T cells were seeded at 25% confluency 24 h prior to transfection in poly-D-lysine coated 35 mm glass bottom dishes (MatTek Corporation). Cells were grown in DMEM media supplemented with 10% FBS and Penicillin-Streptomycin antibiotics until they reached 50-60% confluency. Transfection was carried out using X-tremeGene™ 9 DNA transfection reagent (Roche) according to the manufacturer's instructions. Proteins were expressed for 24 h prior to analyses. To label proteins with Halo-Tag fusion, protein expression was carried out in the presence of 1 μM 4 or 1 μM TMR Halo-Tag ligand to form covalent conjugate with the Halo-Tag domain. For a dual-probe labeling scheme, 1 μM 4 and 1 μM coumarin Halo-Tag ligand to simultaneously form covalent conjugate with the Halo-Tag domain.
To wash off unbound Halo ligands, the cells were washed extensively by replacing media with fresh DMEM and incubating for 30 min at 37° C. For confocal fluorescence imaging with either 4-labeled Halo fusion, TMR-labeled Halo fusion, EGFP fusion, or mCherry fusion proteins, DMEM media was replaced with FluoroBrite™ DMEM media (ThermoFisher) supplemented with 10% FBS, and Hoechst 33342 (0.1 μg/mL). For confocal fluorescence imaging with either dual-probe labeled Halo fusion with 4 and coumarin ligand, DMEM media was replaced with FluoroBrite™ DMEM media (ThermoFisher) supplemented with 10% FBS. The samples were incubated for 30 min prior to imaging. Media was replaced with fresh FluoroBrite™ DMEM media (ThermoFisher) supplemented with 10% FBS prior to imaging. Confocal images were obtained using Olympus FluoView™ FV1000 confocal microscope. The EGFP fluorescence was visualized using blue argon (488 nm) laser. Nuclear staining and coumarin fluorescence was visualized using violet laser (405 nm). Fluorescence of TMR and 4 were visualized using green HeNe laser (543 nm).

Chain of SOD1(V31A)-Halo (UniProt P00441+P0A3G2, A155T/A167V/A172T/A224E/C128F/C176G/D78G/E160K/E257K/H272N/K175M/K195N/L47V/L88M/N227D/S58T/T264A/V32A/Y273L/Y87F) (P00441+P0A3G2 fused with the stated changes): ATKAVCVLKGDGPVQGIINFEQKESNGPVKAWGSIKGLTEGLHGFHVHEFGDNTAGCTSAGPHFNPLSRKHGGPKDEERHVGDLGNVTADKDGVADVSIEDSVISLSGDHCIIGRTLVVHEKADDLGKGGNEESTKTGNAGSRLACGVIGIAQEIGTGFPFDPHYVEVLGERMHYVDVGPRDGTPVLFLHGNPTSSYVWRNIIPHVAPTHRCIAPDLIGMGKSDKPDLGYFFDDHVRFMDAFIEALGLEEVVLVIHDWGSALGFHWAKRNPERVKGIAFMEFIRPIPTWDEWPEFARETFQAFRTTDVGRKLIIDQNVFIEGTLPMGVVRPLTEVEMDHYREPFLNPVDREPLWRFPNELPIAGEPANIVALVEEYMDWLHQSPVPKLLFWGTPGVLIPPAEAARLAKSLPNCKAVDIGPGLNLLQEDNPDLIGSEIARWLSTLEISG
Chain of SOD1(V31A)-Halo (Rhodococcus rhodochrous, UniProt P0A3G2, A155T/A167V/A172T/A224E/C128F/C176G/D78G/E160K/E257K/H272N/K175M/K195N/L47V/L88M/N227D/P291S/S58T/T264A/Y273L/Y87F) (P0A3G2 other isoform, or with tags, fused parts or gaps with the stated changes): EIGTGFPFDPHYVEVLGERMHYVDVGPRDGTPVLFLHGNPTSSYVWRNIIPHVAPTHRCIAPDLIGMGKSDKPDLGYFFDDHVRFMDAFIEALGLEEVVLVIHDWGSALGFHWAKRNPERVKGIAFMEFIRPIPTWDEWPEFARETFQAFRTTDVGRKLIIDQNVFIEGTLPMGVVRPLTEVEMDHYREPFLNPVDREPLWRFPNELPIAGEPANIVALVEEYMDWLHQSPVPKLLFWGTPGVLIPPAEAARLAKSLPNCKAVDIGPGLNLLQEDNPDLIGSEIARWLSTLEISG
T1 sequence (P42858+P0A3G2 fused with the stated changes): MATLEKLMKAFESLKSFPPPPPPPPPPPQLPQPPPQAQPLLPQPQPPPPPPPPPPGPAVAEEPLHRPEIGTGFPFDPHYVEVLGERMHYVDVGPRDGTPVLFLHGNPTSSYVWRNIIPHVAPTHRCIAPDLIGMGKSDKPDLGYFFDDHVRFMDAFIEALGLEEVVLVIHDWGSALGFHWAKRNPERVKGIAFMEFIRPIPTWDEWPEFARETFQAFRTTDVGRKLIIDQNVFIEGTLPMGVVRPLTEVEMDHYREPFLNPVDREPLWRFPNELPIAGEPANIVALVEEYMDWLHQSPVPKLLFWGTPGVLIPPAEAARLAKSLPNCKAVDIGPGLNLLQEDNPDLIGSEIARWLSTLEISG

## CN(C)c1ccc(/C=C2N=C(/C=C/c3ccc(N(CCO)CCO)cc3)N(CC(=O)N[C@H]3CC[C@H](C(=O)NCCOCCOCCCCCCCl)CC3)C\2=O)cc1 [Compound 4, (1r,4r)-4-(2-((Z)-2-((E)-4-(bis(2-hydroxyethyl)amino)styryl)-4-(4-(dimethylamino)benzylidene)-5-oxo-4,5-dihydro-1H-imidazol-1-yl)acetamido)-N-(2-(2-((6-chlorohexyl)oxy)ethoxy)ethyl)cyclohexanecarboxamide]
SOD1(V31A)-Halo [1]
  fluorescence of the SOD1(V31A)-Halo-4 conjugate under heat: increased in the absence of insoluble protein aggregates
SOD1(V31A)-Halo [1]; 54.5° C.
  kinetics of fluorescence increase versus turbidity: much faster than the kinetics of turbidity
  kinetics of fluorescence versus protein misfolding: coincided with the kinetics of protein misfolding
SOD1(V31A)-Halo [2]
  fluorescence of the Halo-4 conjugate control under heat: remained non-fluorescent under all heat conditions
[3]
  fluorescence in cells expressing Htt-0Q-Halo: dark background
